These results are taken from PMC9498296, “Inhibitory Activity of Quaternary Isoquinoline Alkaloids on Soluble Epoxide Hydrolase” (Current Issues in Molecular Biology, 2022).

Assay [1] addresses T1, soluble epoxide hydrolase (sEH) (Homo sapiens, UniProt P34913).
T1 construct: purchased Cayman Chemical (Ann Arbor, MI, USA) 10011669
T1 sequence (P34913 1-555): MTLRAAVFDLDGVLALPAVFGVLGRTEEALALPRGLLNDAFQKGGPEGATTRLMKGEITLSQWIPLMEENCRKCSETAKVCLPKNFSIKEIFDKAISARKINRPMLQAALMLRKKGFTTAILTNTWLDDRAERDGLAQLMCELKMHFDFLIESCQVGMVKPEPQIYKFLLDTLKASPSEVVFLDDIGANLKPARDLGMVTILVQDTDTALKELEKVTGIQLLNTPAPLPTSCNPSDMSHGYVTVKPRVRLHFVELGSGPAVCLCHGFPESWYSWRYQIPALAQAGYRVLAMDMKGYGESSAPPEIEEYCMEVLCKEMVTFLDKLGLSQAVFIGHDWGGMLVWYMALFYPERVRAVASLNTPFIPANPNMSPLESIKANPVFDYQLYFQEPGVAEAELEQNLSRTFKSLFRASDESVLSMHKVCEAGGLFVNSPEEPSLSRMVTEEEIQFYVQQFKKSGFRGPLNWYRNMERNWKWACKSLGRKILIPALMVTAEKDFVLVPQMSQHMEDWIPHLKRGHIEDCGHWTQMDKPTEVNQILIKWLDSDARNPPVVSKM
The assay is described as follows: sEH enzymatic assay (fluorometric, PHOME substrate). The conditions noted are these: 37 °C, pH 7.0, tested three times, read-out: Inhibition of Compounds on sEH IC50. It counts as biochemical. The protocol:
The sEH assay was performed as described previously, with minor modifications. To determine inhibitory activity, 130 μL of the sEH in 25 mM bis-Tris-HCl buffer (pH 7.0) containing 0.1% BSA was added to either 20 μL of inhibitor dissolved in MeOH. Next, 20 μL of PHOME was mixed to each mixture, which was then reacted at 37 °C for sEH hydrolysis. Product formation was monitored fluorometrically at 330 nm excitation and 465 nm emission for approximately 60 min.
sEH inhibition activity was calculated using sEH Inhibition rate (%) = [(ΔC − ΔI)/ΔC] × 100(1) where ΔC and ΔI are the difference of the solvent and compound intensities, respectively, after about one hour and y = y0 + (a × x/b + x)(2) where y0 is the minimum value along the y-axis, a is the difference between the maximum and minimum values, and b is the x value at 50 percent of the “a” value.

In assay [2] the target is T1, soluble epoxide hydrolase (sEH). The assay is described as follows: Enzyme kinetics of sEH inhibition (Lineweaver–Burk and Dixon plots). Particulars: for Binding Mode: Lineweaver–Burk plots, PHOME substrate; for Ki: Table 1, Dixon plots, read-out: Binding Mode (ki, M): ki. It counts as biochemical. The protocol:
Additionally, an enzyme kinetic study was performed to identify how the three compounds bound to this enzyme. The initial velocity (v0) of inhibitor was determined as the rate of enzymatic conversion from substrate to product depending on the concentration of inhibitor at the start of the enzymatic reaction. The results were visualized using classic double-reciprocal Lineweaver–Burk plots. Figure 2B–D indicates one 1/Km and four 1/Vmax values for the three inhibitors, which inhibited the catalytic reaction of sEH with PHOME in a noncompetitive manner.

As usually defined, the IC50 is the midpoint of a concentration-inhibition curve. The term Ki denotes the equilibrium dissociation constant of an inhibitor or competing ligand from its target. On to `COc1cc2c(cc1OC)-c1cc3ccc(OC)c(OC)c3c[n+]1CC2` [Compound 1, palmatine], for which the IC50 in assay [1] turned out to be 29.6 ± 0.5 µM. Moreover, in assay [2], the “Binding Mode” value was “Non-competitive” and the Ki stood at 2.69e-05 M.
The like results for `COc1ccc2cc3[n+](cc2c1OC)CCc1cc2c(cc1-3)OCO2` [Compound 2, berberine] were, in that order, 33.4 ± 0.8 µM, “Non-competitive” and 4.68e-05 M.
The like results for `COc1cc2c(cc1O)CC[n+]1cc3c(OC)c(OC)ccc3cc1-2` [Compound 3, jatrorrhizine] were, in that order, 27.3 ± 0.4 µM, “Non-competitive” and 4.45e-05 M.
